Source: article PMC7849180 (Frontiers in Pharmacology, 2020)
Like-named read-outs stand apart in the source and are kept apart here.

Experiments:
test strains = assay: Ames test; conditions: 9.76–6100 μg/mL, with or without S9
From the text: Suzhou Zelgen Biopharmaceuticals Co., Ltd. Jaktinib Hydrochloride Tablets

[1] = Metabolic stability in liver microsomes; format: in vitro ADME, rat
Method: (§1) The metabolic stability of ZG0128 (the dihydrochloride monohydrate of ZG0163) was evaluated using human, monkey, dog, rat, and mouse liver microsomes as the in vitro models. The percentages of residues for ZG0128 after incubating in human, monkey, dog, rat, and mouse liver microsomes for 60 minutes was 55.5%, 63.1%, 67.1%, 80.3%, and 79.0%, respectively. The CLint values of in vivo clearance were calculated to be 24.1, 21.6, 33.4, 10.7, 26.0 mL/min/kg, respectively. Thus its was speculated that ZG0128 was a medium clearance drug in humans, monkeys, and mice, a high clearance drug in dogs, and a low clearance drug in rats.
(§2) Using UPLC-UV/Q-TOF MS, the potential metabolites of ZG0128 in various liver microsomes (human, monkey, dog, rat and mouse liver microsomes) incubation systems were identified and the metabolic pathways of ZG0128 were speculated. The main metabolite of ZG0128 in above five types of liver microsomes were primary alcohol metabolite formed by morpholine ring-opening (M3). […]

[2] = Metabolic stability in liver microsomes; format: in vitro ADME, mouse
Method: as §1, §2

JNK = assay: Phosphorylation of c-Jun by JNK; format: biochemical
From the text: (§3) Suzhou Zelgen Biopharmaceuticals Co., Ltd. Jaktinib Hydrochloride Tablets Chemical Drug Class 1 New Drug has been completed. The ongoing toxicity tests include a long-term 39-week toxicity test in Beagle dogs by oral administration, a reproductive toxicity test in rats during the teratogenic sensitive period, and a reproductive toxicity test in rabbits during the teratogenic sensitive period.
(§4) Preclinical Pharmacodynamic Study
(§5) Study on the in vitro Pharmacodynamic Effects of ZG0163 at the […]
(§6) In this study, the effects of ZG0163 was similar to those of positive control compounds, ZG0164 and ZG0178.
(§7) Study on the in vitro Pharmacodynamic Effects of ZG0163 at the Cellular Level (Ba/F3-EpoR-JAK2V617F cells)
(§8) JAK2V617F cell line, the compound ZG0163 was able to induce apoptosis of pathogenic cells and eliminate abnormal cell proliferation by inhibiting the JAK-STAT signaling pathway, thus achieving treatment efficacy in myeloproliferative neoplasms. […]
(§9) cell line, manifested as significant inhibition of phosphorylation of JAK2 and its downstream signaling proteins ERK and STAT5. The effects of ZG0163 was similar to those of positive control compounds, ZG0164 and ZG0178.
EpoR-JAK2V617F, which was similar to those of positive control compounds, ZG0164

[3] = tested on: Ba/F3-EpoR-JAK2V617F cells; assay: Cell activity of mutant Ba/F3-EpoR-JAK2V617F; format: cell-based; conditions: read-out: IC50, inhibition of cell activity
From the text: as §3, §4, §5, §6, §7, §8, §9
EpoR-JAK2V617F, which was similar to those of positive control compounds, ZG0164 […]
and ZG0178. However, the inhibitory effect on the activity of Ba/F3-EpoR cell line […]
respectively. […]

Compound	Ames test result (test strains)	CLint of in vivo clearance [1] [mL/min/kg]	percentage of residue after 60 minutes [1] [%]	CLint of in vivo clearance [2] [mL/min/kg]	percentage of residue after 60 minutes [2] [%]	effect on phosphorylation of c-Jun by JNK (JNK)	IC50 [3] [nM]
Cl.Cl.O.[2H]C1([2H])COCC([2H])([2H])N1c1ccc(Nc2nccc(-c3ccc(C(=O)NCC#N)cc3)n2)cc1 [ZG0128, Jaktinib Dihydrochloride Monohydrate]	negative	10.7	80.3	26.0	79.0		
Jaktinib						no significant effects	500
